Data as given in patent US4066650A, “Keto-aldehyde-amine addition products and method of making same” (priority 1975, dated 1978).

Key:
[1] = Acute toxicity (mortality) and body weight change in Sarcoma-180 tumor-bearing mice; settings: mouse, in vivo, ip
Procedure: (§1) The biological effects of methylglyoxal maleimide ("A") and methylglyoxal glutaconic imide ("B") were determined by tests on normal (non-tumorous) and subcutaneous Sarcoma-180 tumor-bearing mice. […] The compounds were administered by intraperitoneal route and the values were calculated by standard methods (Goldin A., in Meth.Can.Res. 4, p. 193, 1968).
(§2) The test solutions were prepared by dissolving either 38.72 mg of methylglyoxal maleimide ("A") or 5278 mg of methylglyoxal glutaconic imide ("B") in 100 ml of physiological saline. The pH of the solution was adjusted to 6.0, sterilized on Millipore filtration and stored in sterile vials at about 10° C. One […] of such solutions contained 0.387 mg of compound "A" or 52.78 mg of compound "B", respectively and when injected into mice of an average weight of 26 grams the dose was equivalent to 14.884 mg/kg of the compound "A" and 2030 mg/kg of the compound "B".
(§3) Random-bred Swiss albino mice (Charles River CD-1 strain, average weight 26±3 g, females) were inocculated with 25 million Sarcoma-180 cells (in about 0.25 ml of ascitic fluid, cell age 7 days) on the right scapular region. The animals were randomized on the 4th day after the inocculation with the cancer cells, placed in separate test groups of 10 mice per group (5 mice/cage) and weighed.
(§4) The compositions were injected at different dose levels, each dose being double the next-lower dose, with three test groups (30 mice) for each dose level. The injection was effected intraperitoneally into normal and tumor-bearing mice, starting on the fourth day after the inocculation with cancer, once daily for ten consecutive days. The volume of the injection at each dose level was brought up to 1.0 ml with saline. A proper number of normal and tumorous mice was treated with saline solution in the same manner, frequency and volume as a control experiment. The body weight change and mortality (acute toxicity) were recorded daily.

[2] = system: Sarcoma-180 tumor-bearing mice; assay: as above; settings: tumorous mice
Procedure: as §1, §2, §3, §4

in vivo = settings: mouse, in vivo, ip
Procedure: as §1
(§5) A thirty-day survival test was carried out with normal mice to determine any possible delayed toxicity.
as §2
(§6) Normal, non-tumor-bearing mice of the same strain, sex and weight were also randomized and placed in separate test groups.
(§7) The compositions were injected at different dose levels, each dose being double the next-lower dose, with three test groups (30 mice) for each dose level. The injection was effected intraperitoneally into normal and tumor-bearing mice, starting on the fourth day after the inocculation with cancer, once daily for ten consecutive days. […] A proper number of normal and tumorous mice was treated with saline solution in the same manner, frequency and volume as a control experiment. The body weight change and mortality (acute toxicity) were recorded daily.
(§8) A number of normal animals treated with the drugs in the same manner as the tumorous ones were also sacrificed on the eleventh day, and their organs were collected for histological examination.

[3] = system: normal (non-tumorous) mice; assay: Acute toxicity (mortality), body weight change and 30-day survival in normal mice
Procedure: as §1, §5, §2, §6, §7, §8

Sarcoma-180 = assay: Anti-tumor action on subcutaneous Sarcoma-180 in mice; format: in vivo, Swiss albino mice (Charles River CD-1 strain)
Procedure: On the eleventh day (tumer age 14 days) the test and control mice were sacrificed, the tumor or tumorous area was cut out, weighed and stored in formaldehyde for histological examination. At the same time the liver, kidneys, spleen, heart, and a piece of the small intestine were collected and stored in formaldehyde for histopathological evaluation of the effect of the drugs on these tissues and organs.
The anti-neoplastic action of the drugs was assayed by comparison of the tumor weight present in treated and control animals and expressed as the percent of controls average weight (T/C%). The presence of malignancy in the tumors or tumor-areas of the treated animals was verified by histological examination.
The reabsorption of tissue, formed between the inocculation of the cancer cells and the onset of the treatment is relatively slow. Treated animals even under strong cancerostatic action of the drugs show a small quantity (100-200 mg) of tissue in the area where the tumor cells where deposited. It is therefore difficult to tell the nature of these residual tissues by macroscopic examination. Most of these residual "lumps" are made up of connective tissues and necrotic, scar tissues. If it were regarded as neoplasia without histological examination the T/C% calculation would give an erratic result in the evaluation of the anti-cancer action of the compound. Histological examination of these "lumps" therefore is exceedingly important in order to arrive at a valid evaluation of the effectiveness of the drugs especially in short-term experiments (10 days) as carried out in the present assays.

Question: With CC(=O)C(O)N1C(=O)C=CC1=O (stereo not shown) [Methylglyoxal-maleimide, N'-(2-keto-propane-1-ol)-2,5-dioxopyrroline-3-ene] as the molecule, how does the mortality at 240 h ([1]; 0.234 mg/kg) read?
Answer: 0%

Question: What about the mortality at 240 h ([1]; 0.468 mg/kg) of the same molecule?
Answer: 0%

Question: And the mortality at 240 h ([1]; 0.936 mg/kg)?
Answer: 0%

Question: What about the mortality at 240 h ([1]; 1.872 mg/kg) of the same molecule?
Answer: 0%

Question: What about the mortality at 240 h ([1]; 3.744 mg/kg) of the same molecule?
Answer: 0%

Question: What about the mortality at 240 h ([1]; 7.488 mg/kg) of the same molecule?
Answer: 0%

Question: And the mortality at 240 h ([1]; 14.896 mg/kg)?
Answer: 100%

Question: And the Δ body wt ([2]; 0.234 mg/kg i.p. daily for 10 days)?
Answer: +0.96

Question: And the Δ body wt ([2]; 0.468 mg/kg i.p. daily for 10 days)?
Answer: +0.65

Question: What about the Δ body wt ([2]; 0.936 mg/kg i.p. daily for 10 days) of the same molecule?
Answer: +0.6

Question: And the Δ body wt ([2]; 1.872 mg/kg i.p. daily for 10 days)?
Answer: +0.4

Question: What about the Δ body wt ([2]; 3.744 mg/kg i.p. daily for 10 days) of the same molecule?
Answer: +0.3

Question: And the Δ body wt ([2]; 7.488 mg/kg i.p. daily for 10 days)?
Answer: +0.1

Question: And the mortality at 240 h (in vivo; 0.234 mg/kg)?
Answer: 0%

Question: And the mortality at 240 h (in vivo; 0.468 mg/kg)?
Answer: 0%

Question: What about the mortality at 240 h (in vivo; 0.936 mg/kg) of the same molecule?
Answer: 0%

Question: What about the mortality at 240 h (in vivo; 1.872 mg/kg) of the same molecule?
Answer: 0%

Question: What about the mortality at 240 h (in vivo; 3.744 mg/kg) of the same molecule?
Answer: 0%

Question: What about the mortality at 240 h (in vivo; 7.488 mg/kg) of the same molecule?
Answer: 0%

Question: And the mortality at 240 h (in vivo; 14.896 mg/kg)?
Answer: 100%

Question: What about the “LD10 (maximum tolerated dose at 10% lethality)” value ([3]; mice, i.p. daily for 10 days) of the same molecule?
Answer: 8.59 mg/kg

Question: What about the “effect of reduction in the total volume of injection on mortality” value ([3]; mice, i.p., volume below 1.0 ml/animal/day) of the same molecule?
Answer: increase in mortality

Question: And the Δ body wt ([3]; normal mice, 0.234 mg/kg i.p. daily for 10 days)?
Answer: +1.0

Question: What about the Δ body wt ([3]; normal mice, 0.468 mg/kg i.p. daily for 10 days) of the same molecule?
Answer: +0.7

Question: And the Δ body wt ([3]; normal mice, 0.936 mg/kg i.p. daily for 10 days)?
Answer: +0.46

Question: And the Δ body wt ([3]; normal mice, 1.872 mg/kg i.p. daily for 10 days)?
Answer: +0.39

Question: What about the Δ body wt ([3]; normal mice, 3.744 mg/kg i.p. daily for 10 days) of the same molecule?
Answer: +0.1

Question: And the Δ body wt ([3]; normal mice, 7.488 mg/kg i.p. daily for 10 days)?
Answer: -0.2

Question: What about the “30 day mortality rate of all treated nontumorous animals (compared with mortality in 10 days)” value ([3]; normal mice, i.p. daily for 10 days, 30 day observation) of the same molecule?
Answer: identical

Question: What about the ED99 (Sarcoma-180; Mus musculus, Sarcoma-180, ip, 240 h, tumorous mice, i.p. daily for 10 days) of the same molecule?
Answer: 1.15 mg/kg

Question: What about the “IT (therapeutic index LD10/ED90)” value (Sarcoma-180; mice, i.p. daily for 10 days) of the same molecule?
Answer: 7.46

Question: And the ED% (Sarcoma-180; tumorous mice, 0.234 mg/kg i.p. daily for 10 days)?
Answer: > 0.5%

Question: And the ED% (Sarcoma-180; tumorous mice, 0.468 mg/kg i.p. daily for 10 days)?
Answer: ~ 1%

Question: What about the ED% (Sarcoma-180; tumorous mice, 0.936 mg/kg i.p. daily for 10 days) of the same molecule?
Answer: 60%

Question: What about the ED% (Sarcoma-180; tumorous mice, 1.872 mg/kg i.p. daily for 10 days) of the same molecule?
Answer: 100%

Question: What about the ED% (Sarcoma-180; tumorous mice, 3.744 mg/kg i.p. daily for 10 days) of the same molecule?
Answer: 100%

Question: And the ED% (Sarcoma-180; tumorous mice, 7.488 mg/kg i.p. daily for 10 days)?
Answer: 100%
